Test results taken from paper doi:10.1101/2024.08.19.608619, “Discovery of potent SARS-CoV-2 nsp3 macrodomain inhibitors uncovers lack of translation to cellular antiviral response” (bioRxiv, 2024).
Values after ≈ are worked out from the molar mass of the structure shown. Values joined by “and” are separate entries in the source; they are usually repeats but may differ in a detail not shown here. Equal entries are not always repeated. Where two headings read alike, the source gives them in different places.

Key:
[1] = test system: SARS-CoV-2, isolate USA-WA1/2020; assay: microbe, parasite or virus in culture; assay type: cell-based; conditions: HeLa-ACE2 SARS-CoV-2 antiviral effect without P-gp inhibitor; for perc_max_measured: maximum measured response of dose series; for perc_min_measured: minimum measured response of dose series; for EC50: read-out: ec50; for EC90: read-out: ec90
[2] = Hepatic microsomal stability, HLM; assay type: in vitro ADME, human; conditions: In vitro human liver microsomal stability; for perc_remaining_no_cofactor: no cofactor
[3] = Hepatic microsomal stability, MLM; assay type: in vitro ADME
[4] = test system: HeLa-ACE2 cells; conditions: for perc_max_measured: highest measured response of the dose series; for perc_min_measured: lowest measured response of the dose series
[5] = LogD; conditions: pH 7.4; In vitro LogD
[6] = in vitro; conditions: human, hela-ace2 cells, 50.0
[7] = In vitro kinetic solubility; conditions: In vitro kinetic solubility, ph 7.4
[8] = Permeability Papp (AB) MDR1/MDCKII; conditions: In vitro MDR1-MDCKII permeability; for papp_a_to_b_mean: A to B; for perc_recovery_a_to_b_mean: recovery A to B
[9] = In vitro mouse liver microsomal stability
[10] = In vitro mouse liver microsomal stability; no cofactor
[11] = protocol HeLa-ACE2 cytotoxicity
[12] = In vitro mouse liver microsomal stability, no cofactor

Compound	perc_max_measured [1]	perc_min_measured [1]	EC50 [1] [µM]	EC90 [1] [µM]	clint [2] [µL/min/mg]	perc_remaining [2] [%]	t_half [2] [min]	perc_remaining_no_cofactor [2] [%]	clint [3, 9] [µL/min/mg]	perc_remaining [3, 9] [%]	t_half [3, 9] [min]	logd [5]	CC50 at 24 h [6] [µM]	solubility_mean [7] [µM]	papp_a_to_b_mean ([8]; mean) [×10⁻⁶ cm/s]	perc_remaining_no_cofactor [3, 12] [%]	CC50 ([4]; HeLa-ACE2 cytotoxicity) [µM]	cc10 ([4]; HeLa-ACE2 cytotoxicity) [µM]	perc_max_measured ([4]; HeLa-ACE2 cytotoxicity) [%]	perc_min_measured ([4]; HeLa-ACE2 cytotoxicity) [%]	also measured
CC(C)[C@@H](Nc1ncnc2[nH]c(-c3cnn(CCC(N)=O)c3)cc12)c1ccc2c(c1)OCCO2 [ASAP-0008482]	121.913% and 112.19%	97.771% and 96.19%	> 20	> 20	99.0	19.0	16.9	108.0	62.0	36.0	27.1	3.0	> 20	236 (≈ 109 µg/mL)	1.46	–	–	–	–	–	perc_remaining_no_cofactor [3, 10]: 106.0%; CC50 [4, 11]: > 20 µM; perc_max_measured [4, 11]: 111.916% and 92.58%; perc_min_measured [4, 11]: 82.711% and 77.006%; perc_recovery_a_to_b_mean ([8]; mean): 88.9%
CC(C)[C@@H](Nc1ncnc2[nH]c(-c3cnn(CC(=O)N(C)C)c3)cc12)c1ccc2c(c1)OCCO2 [ASAP-0008485]	120.313% and 102.904%	86.961% and 72.697%	> 20	> 20	142.0	9.0	11.8	110.0	59.0	39.0	28.1	2.3	> 20	210 (≈ 99.9 µg/mL)	1.15	–	–	–	–	–	perc_remaining_no_cofactor [3, 10]: 98.0%; CC50 [4, 11]: > 20 µM; cc10 [4, 11]: > 20.0 µM; perc_max_measured [4, 11]: 96.628% and 85.957%; perc_min_measured [4, 11]: 73.752% and 75.897%; perc_recovery_a_to_b_mean ([8]; mean): 80.8%
CCNC(=O)c1cc2c(N[C@@H](c3ccc4c(c3)S(=O)(=O)NCC4)C(C)C)ncnc2[nH]1 [ASAP-0011076]	101.15%	78.382%	> 20	> 20	85.0	24.0	19.7	107.0	45.0	49.0	36.8	2.6	> 20	344 (≈ 152 µg/mL)	1.96	101.0	> 20	> 20.0	99.412	92.285	perc_recovery_a_to_b_mean ([8]; mean): 97.7%
CC(C)[C@@H](Nc1ncnc2[nH]c(-c3cnn(C)c3)cc12)c1ccc2c(c1)S(=O)(=O)NCC2 [ASAP-0011192]	105.419%	69.993%	> 20	> 20	120.0	13.0	13.9	98.0	87.0	23.0	19.1	3.2	> 20	105 (≈ 47.4 µg/mL)	1.58	92.0	> 20	> 20.0	100.208	90.498	perc_recovery_a_to_b_mean ([8]; mean): 93.2%
CC(C)[C@@H](Nc1ncnc2[nH]c(-c3ccc4nnn(C)c4c3)cc12)c1ccc2c(c1)S(=O)(=O)CCC2 [ASAP-0011201]	110.665%	33.895%	3.64	> 20	752.0	0.0	2.2	93.0	219.0	3.0	7.6	3.4	> 20	6 (≈ 3.01 µg/mL)	–	93.0	> 20	> 20.0	106.149	70.638	papp_a_to_b_mean ([8]; no inhibitor): 0.827 ×10⁻⁶ cm/s; perc_recovery_a_to_b_mean ([8]; no inhibitor): 53.6%
CC(C)[C@@H](Nc1ncnc2[nH]cc(C(=O)NC3CC3)c12)c1ccc2c(c1)S(=O)(=O)CCC2 [ASAP-0011207]	103.36%	37.723%	14.4	> 20	409.0	0.0	4.1	111.0	1740.0	0.0	1.0	3.2	> 20	216 (≈ 98 µg/mL)	2.97	102.0	> 20	> 20.0	109.458	97.44	perc_recovery_a_to_b_mean ([8]; mean): 85.8%
CC(C)[C@@H](Nc1ncnc2[nH]c(-c3ccc4cncn4c3)cc12)c1ccc2c(c1)S(=O)(=O)CCC2 [ASAP-0011215]	92.609%	28.375%	7.12	> 20	210.0	4.0	8.0	97.0	170.0	6.0	9.8	4.0	> 20	14 (≈ 6.81 µg/mL)	–	87.0	> 20	> 20.0	108.268	81.968	papp_a_to_b_mean ([8]; no inhibitor): 0.56 ×10⁻⁶ cm/s; perc_recovery_a_to_b_mean ([8]; no inhibitor): 70.8%
CC(C)[C@@H](Nc1ncnc2[nH]c(-c3cnn(CC(N)=O)c3)cc12)c1ccc2c(c1)S(=O)(=O)CCC2 [ASAP-0011432]	127.59%	107.301%	> 20	> 20	115.0	15.0	14.5	103.0	96.0	20.0	17.4	2.0	> 20	335 (≈ 165 µg/mL)	0.719	111.0	–	–	–	–	CC50 [4, 11]: > 20 µM; cc10 [4, 11]: > 20.0 µM; perc_max_measured [4, 11]: 97.628%; perc_min_measured [4, 11]: 83.24%; perc_recovery_a_to_b_mean ([8]; mean): 76.6%
CC(C)[C@@H](Nc1ncnc2[nH]ccc12)c1ccc2c(c1)S(=O)(=O)CCO2 [ASAP-0012318]	99.283%	83.757%	> 20	> 20	18.0	74.0	91.3	92.0	69.0	33.0	24.2	2.6	> 20	372 (≈ 139 µg/mL)	–	111.0	> 20	> 20.0	106.826	90.526	papp_a_to_b_mean ([8]; no inhibitor): 4.4 ×10⁻⁶ cm/s; perc_recovery_a_to_b_mean ([8]; no inhibitor): 69.0%
CC(C)[C@@H](Nc1ncnc2[nH]c(-c3cncc(S(C)(=O)=O)c3)cc12)c1ccc2c(c1)S(=O)(=O)CCC2 [ASAP-0012320]	119.816%	96.629%	> 20	> 20	635.0	1.0	2.6	104.0	272.0	1.0	6.1	3.1	> 20	31 (≈ 16.3 µg/mL)	–	112.0	> 20	> 20.0	98.548	93.918	papp_a_to_b_mean ([8]; no inhibitor): 0.491 ×10⁻⁶ cm/s; perc_recovery_a_to_b_mean ([8]; no inhibitor): 66.6%
